Molecules are shown by their SMILES.

Tested on in the first series: not given
Assay: not given
Particulars: cited from earlier work.
`O=C(O)C(Cl)Cl` [DCA, dichloroacetate]: the “biological half-life (in words)” value is recorded as “short biological half-life”.

A further series deals with isolated working rat heart. Put plainly: Glucose oxidation in isolated perfused working rat heart ([U-14C]glucose, 14CO2 production). Particulars: Table 2A; screening concentration 100 μM; isolated working rat heart; read-out: Glucose Oxidation (% above control). As to the method:
Rat hearts were cannulated for isolated working heart 60 minute aerobic perfusions as described in J Pharmacol Exp Ther. 1993; 264:135-144, the entire disclosure of which is incorporated herein by reference.
Male Sprague-Dawley rats (0.3-0.35 kg) were anesthetized with pentobarbital sodium (60 mg/kg IP) and hearts were quickly excised, the aorta was cannulated and a retrograde perfusion at 37° C. was initiated at a hydrostatic pressure of 60 mm Hg. Hearts were trimmed of excess tissue, and the pulmonary artery and the opening to the left atrium were then cannulated. After 15 min of Langendorff perfusion, hearts were switched to the working mode by clamping the aortic inflow line from the Langendorff reservoir and opening the left atrial inflow line. The perfusate was delivered from an oxygenator into the left atrium at a constant preload pressure of 11 mm Hg. Perfusate was ejected from spontaneously beating hearts into a compliance chamber (containing 1 ml of air) and into the aortic outflow line. The afterload was set at a hydrostatic pressure of 80 mm Hg. All working hearts were perfused with Krebs'-Henseleit solution containing calcium 2.5 mmol/L, glucose 5.5 mmol/L, 3% bovine serum albumin (fatty acid free, initial fractionation by heat shock, Sigma), and with 1.2 mmol/L palmitate. Palmitate was bound to the albumin as described in J Bio Chem. 1992; 267:3825-3831, the entire disclosure of which is incorporated herein by reference.
The perfusate was recirculated, and pH was adjusted to 7.4 by bubbling with a mixture containing 95% O2 and 5% CO2.
Spontaneously beating hearts were used in all perfusions. Heart rate and aortic pressure were measured with a Biopac Systems Inc. blood pressure transducer connected to the aortic outflow line. Cardiac output and aortic flow were measured with Transonic T206 ultrasonic flow probes in the preload and afterload lines, respectively. Coronary flow was calculated as the difference between cardiac output and aortic flow. Cardiac work was calculated as the product of systolic pressure and cardiac output.
Measurement of Glucose Oxidation: Glucose oxidation was measured simultaneously by perfusing hearts with [U-^14C] glucose according to the procedures discussed in Saddik M, et al., J Bio Chem. 1992; 267:3825-3831. The entire disclosure of this reference is incorporated herein by reference. The total myocardial ^14CO2 production was determined at 10-min intervals from the 60-min aerobic period. Glucose oxidation rates were determined by quantitative measurement of ^14CO2 production as described in Barbour RL, et al., Biochemistry. 1984; […]. The entire disclosure of this reference is incorporated herein by reference. ^14CO2 production for the control group were compared with the ^14CO2 production for the group treated with cyclopropanecarboxylic acid, 2-[2-(2-methoxy-ethoxy)-ethoxy]-ethyl ester. Results are shown on FIG. 1 and TABLE 2A.
The procedure of Example A for was followed except that cyclobutanecarboxylic acid, 2-[2-(2-methoxy-ethoxy)-ethoxy]-ethyl ester in 1 μM, 10 μM, 100 μM and 1000 μM amounts was added to the buffer in place of the cyclopropanecarboxylic acid, 2-[2-(2-methoxy-ethoxy)-ethoxy]-ethyl ester. The results are illustrated in FIG. 2 and TABLE 2A.
The procedure of Example A was followed except that cyclopropanecarboxylic acid, 2-isopropoxy-ethyl ester in 1 μM, 10 μM, 100 μM and 1000 μM amounts was added to the buffer in place of the cyclopropanecarboxylic acid, 2-[2-(2-methoxy-ethoxy)-ethoxy]-ethyl ester. The results are illustrated in FIG. 3 and TABLE 2A.
The procedure of Example A was followed except that various cyclobutanecarboxylic acid derivatives, cyclopropanecarboxylic acid derivatives and cyclobutanecarboxylic acid in the amounts of 100 μM or 1000 μM was added to the buffer in place of the cyclopropanecarboxylic acid, 2-[2-(2-methoxy-ethoxy)-ethoxy]-ethyl ester.
Regarding `O=C(OCCOCCOCc1ccccc1)C1CCC1` [Compound 6MM059, Cyclobutanecarboxylic acid 2-(2-benzyloxy-ethoxy)-ethyl ester], the activation at 100 µM amounted to 68%.

Consider `CC(C)OCCOC(=O)[C@@H]1C[C@H]1c1ccccc1` (racemic) [Compound 25MM078, trans-2-Phenyl-cyclopropanecarboxylic acid 2-isopropoxy-ethyl ester], for which the activation at 100 µM was found to be 200%. Same read-out and setting: the figure for `CCCCCCOCCOCCOC(=O)C1CCC1` [Compound 12MM065, Cyclobutanecarboxylic acid 2-(2-hexyloxy-ethoxy)-ethyl ester] is 0%. The same measure, in the same setting: the figure for `O=C(OCCOCCOCCOC(=O)C1CC1)C1CC1` [Compound 21MM074, Cyclopropanecarboxylic acid, 2-[2-(2-cyclopropanecarbonyloxy-ethoxy)-ethoxy]-ethyl ester] is 228%; for `COCCOCCOCCOC(=O)C1CC1` [Compound 1MM054, Cyclopropanecarboxylic acid 2-[2-(2-methoxy-ethoxy)-ethoxy]-ethyl ester] it is 102%.

The same series, now with this note: Table 2B; screening concentration 100 μM; isolated working rat heart; read-out: Glucose Oxidation (% above control).
For the compound `CCOCCOC(=O)[C@]1(/C=C/c2ccccc2)C[C@H]1c1ccccc1` [Compound 34MM087, (1S,2S)-2-phenyl-1-styrl-cyclopropanecarboxylic acid 2 ethoxy-ethyl ester], the activation at 100 µM amounted to 112%. The same measure, in the same setting: the figure for `CCOCCOC(=O)C1(C)CC1` [Compound 28MM081, 1-Methyl-cyclopropanecarboxylic acid, 2-Ethoxy-ethyl ester] is 121%; for `CCOCCOC(=O)C1CC1C` (stereo not drawn) [Compound 32MM085, Trans-2-methyl-cyclopropanecarboylic acid 2-ethoxy-ethyl ester] it is 150%. Consider `O=C(OC[C@H]1O[C@H](OC(=O)C2CC2)[C@H](OC(=O)C2CC2)[C@@H](OC(=O)C2CC2)[C@@H]1OC(=O)C1CC1)C1CC1` [Compound 35MM088, 1,2,3,4,6-penta-O-(cyclopropanecarbonyl)-D-glucopyranose], for which the activation at 100 µM stood at 205%.

These data come from patent US7524885B2, “Compounds that stimulate glucose utilization and methods of use” (The Governors of the University of Alberta, priority 2002, dated 2009).
